Measured values: US10287269B2, “Pyrazolyl pyrimidinone compounds as PDE2 inhibitors” (Merck Sharp & Dohme Corp., priority 2015, dated 2019)
Where two headings read alike, the source gives them in different places.

Molecular target: T1, Rhesus PDE2A3 (Macaca mulatta, UniProt B3VTJ2)
T1 construct: made in house; host or cells: AD293 cells, transient transfection, pcDNA3.3-TOPO; lysate supernatant used as enzyme
T1 sequence (B3VTJ2 1-941): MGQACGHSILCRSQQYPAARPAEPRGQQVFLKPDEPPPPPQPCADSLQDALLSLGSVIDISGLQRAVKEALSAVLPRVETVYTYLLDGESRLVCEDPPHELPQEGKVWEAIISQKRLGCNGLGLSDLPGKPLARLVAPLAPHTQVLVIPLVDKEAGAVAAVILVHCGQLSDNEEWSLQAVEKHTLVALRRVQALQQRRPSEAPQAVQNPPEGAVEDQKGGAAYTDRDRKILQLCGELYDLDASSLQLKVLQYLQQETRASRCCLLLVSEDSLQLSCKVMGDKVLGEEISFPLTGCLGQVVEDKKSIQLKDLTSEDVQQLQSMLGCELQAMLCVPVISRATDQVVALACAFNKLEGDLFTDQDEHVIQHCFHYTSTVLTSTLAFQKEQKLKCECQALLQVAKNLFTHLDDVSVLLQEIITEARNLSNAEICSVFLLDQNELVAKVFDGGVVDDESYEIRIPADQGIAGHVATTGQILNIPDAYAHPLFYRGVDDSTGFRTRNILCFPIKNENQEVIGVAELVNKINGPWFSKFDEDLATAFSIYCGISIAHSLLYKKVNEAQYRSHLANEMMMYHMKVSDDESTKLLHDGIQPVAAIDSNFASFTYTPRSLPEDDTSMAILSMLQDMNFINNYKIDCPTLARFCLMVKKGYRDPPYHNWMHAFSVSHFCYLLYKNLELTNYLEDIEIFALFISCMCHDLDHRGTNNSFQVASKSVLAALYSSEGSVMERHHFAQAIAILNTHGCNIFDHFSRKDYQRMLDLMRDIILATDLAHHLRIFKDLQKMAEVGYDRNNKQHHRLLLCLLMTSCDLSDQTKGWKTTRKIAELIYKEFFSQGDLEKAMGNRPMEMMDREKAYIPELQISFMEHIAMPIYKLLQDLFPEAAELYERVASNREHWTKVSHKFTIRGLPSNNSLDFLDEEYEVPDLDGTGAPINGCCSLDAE
Experiment: PDE2 fluorescence polarization (IMAP FP) inhibition assay, rhesus enzyme
Format: biochemical, rhesus macaque
How it was run: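 Lysate of AD293 cells transiently expressing rhesus PDE2A3, diluted for ~20% substrate conversion, with 50 nM FAM-cAMP and 1 uM cGMP activator in pH 7.2 Tris/MgCl2 buffer, 60 min at room temperature.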

[1] = Lab A, read-out: Rhesus PDE2 Ki (nM) Lab A
[2] = Lab B, read-out: Rhesus PDE2 Ki (nM) Lab B

SMILES	Ki [1]	Ki [2]
COc1ccc(Cc2nc(-c3cnn(C(C)c4ccc(C(F)(F)F)cc4)c3)cc(=O)[nH]2)cc1OC (single isomer, unassigned) [Example 61, (S)- or (R)-2-(3,4-dimethoxybenzyl)-6-(1-(1-(4-(trifluoromethyl)phenyl)ethyl)-1H-pyrazol-4-yl)pyrimidin-4(3H)-one]	2 nM	1.8 nM
Cc1nc(-c2cnn(C(C)c3ccc(S(F)(F)(F)(F)F)cc3)c2)cc(=O)[nH]1 (single isomer, unassigned) [Example 62, (R)- or (S)-2-methyl-6-(1-(1-(4-(pentafluorosulfanyl)phenyl)ethyl)-1H-pyrazol-4-yl)pyrimidin-4(3H)-one]	–	143 nM
Cc1nc(-c2cnn(C(C)c3ccc(S(F)(F)(F)(F)F)cc3)c2)cc(=O)[nH]1 (single isomer, unassigned) [Example 63, (S)- or (R)-2-methyl-6-(1-(1-(4-(pentafluorosulfanyl)phenyl)ethyl)-1H-pyrazol-4-yl)pyrimidin-4(3H)-one]	–	99.3 nM
COc1ccc(Cc2nc(-c3cnn(C(C)c4ccc(S(F)(F)(F)(F)F)cc4)c3)cc(=O)[nH]2)cc1OC (single isomer, unassigned) [Example 64, (R)- or (S)-2-(3,4-dimethoxybenzyl)-6-(1-(1-(4-(pentafluorosulfanyl)phenyl)ethyl)-1H-pyrazol-4-yl)pyrimidin-4(3H)-one]	7.2 nM	3.5 nM
COc1ccc(Cc2nc(-c3cnn(C(C)c4ccc(S(F)(F)(F)(F)F)cc4)c3)cc(=O)[nH]2)cc1OC (single isomer, unassigned) [Example 65, (S)- or (R)-2-(3,4-dimethoxybenzyl)-6-(1-(1-(4-(pentafluorosulfanyl)phenyl)ethyl)-1H-pyrazol-4-yl)pyrimidin-4(3H)-one 4(3H)-one]	22 nM	9.9 nM
COc1ccc(Cc2nc(-c3cnn(C(C)c4ccc(C(F)(F)F)cc4F)c3)cc(=O)[nH]2)cc1OC (single isomer, unassigned) [Example 66, (R)- or (S)-2-(3,4-dimethoxybenzyl)-6-(1-(1-(2-fluoro-4-(trifluoromethyl)phenyl)ethyl)-1H-pyrazol-4-yl)pyrimidin-4(3H)-one]	–	0.8 nM
COc1ccc(Cc2nc(-c3cnn(C(C)c4ccc(C(F)(F)F)cc4F)c3)cc(=O)[nH]2)cc1OC (single isomer, unassigned) [Example 67]	0.2 nM	0.1 nM
Cc1nc(-c2ccn(C(C)c3ccc(C(F)(F)F)cc3)n2)cc(=O)[nH]1 (single isomer, unassigned) [Example 77, (R)- or (S)-2-methyl-6-(1-(1-(4-(trifluoromethyl)phenyl)ethyl)-1H-pyrazol-3-yl)pyrimidin-4(3H)-one]	–	542 nM
Cc1nc(-c2ccn(C(C)c3ccc(C(F)(F)F)cc3)n2)cc(=O)[nH]1 (single isomer, unassigned) [Example 78, (S)- or (R)-2-methyl-6-(1-{(1R)-1-[4-(trifluoromethyl)phenyl]ethyl}-1H-pyrazol-3-yl)pyrimidin-4(3H)-one]	–	318 nM
Cc1nc(-c2cnn(C(C)c3ccc(C(F)(F)F)cc3)c2C)cc(=O)[nH]1 (single isomer, unassigned) [Example 81, (R)- or (S)-2-methyl-6-(5-methyl-1-(1-(4-(trifluoromethyl)phenyl)ethyl)-1H-pyrazol-4-yl)pyrimidin-4(3H)-one]	–	232 nM
Cc1nc(-c2cnn(C(C)c3ccc(C(F)(F)F)cc3)c2C)cc(=O)[nH]1 (single isomer, unassigned) [Example 82, (S)- or (R)-2-methyl-6-(5-methyl-1-{(1R)-1-[4-(trifluoromethyl)phenyl]ethyl}-1H-pyrazol-4-yl)pyrimidin-4(3H)-one]	–	192 nM
Cc1nc(-c2cnn(C(C)c3ccc(C(F)(F)F)cc3Cl)c2)cc(=O)[nH]1 (single isomer, unassigned) [Example 83, (R)- or (S)-6-(1-(1-(2-chloro-4-(trifluoromethyl)phenyl)ethyl)-1H-pyrazol-4-yl)-2-methylpyrimidin-4(3H)-one]	6.2 nM	–
CCc1nc(-c2cnn(C(C)c3ccc(C(F)(F)F)cc3F)c2)cc(=O)[nH]1 (single isomer, unassigned) [Example 85, (R)- or (S)-2-ethyl-6-(1-(1-(2-fluoro-4-(trifluoromethyl)phenyl)ethyl)-1H-pyrazol-4-yl)pyrimidin-4(3H)-one]	14.4 nM	–
Cc1nc(-c2cnn(C(C)c3ccc(C4CC4)cc3F)c2)cc(=O)[nH]1 (single isomer, unassigned) [Example 91, (R)- or (S)-6-(1-(1-(4-cyclopropyl-2-fluorophenyl)ethyl)-1H-pyrazol-4-yl)-2-methylpyrimidin-4(3H)-one]	60 nM	–
Cc1nc(-c2cnn(C(C)c3ccc(C4CC4)cc3C)c2)cc(=O)[nH]1 (single isomer, unassigned) [Example 94, (S)- or (R)-6-(1-(1-(4-cyclopropyl-2-methylphenyl)ethyl)-1H-pyrazol-4-yl)-2-methylpyrimidin-4(3H)-one]	40.8 nM	–
CCc1ccc(C(C)n2cc(-c3cc(=O)[nH]c(C)n3)cn2)c(Cl)c1 (single isomer, unassigned) [Example 99, (R)- or (S)-6-(1-(1-(2-chloro-4-ethylphenyl)ethyl)-1H-pyrazol-4-yl)-2-methylpyrimidin-4(3H)-one]	10.7 nM	–
CCc1ccc(C(C)n2cc(-c3cc(=O)[nH]c(C)n3)cn2)c(F)c1 (single isomer, unassigned) [Example 101, (R)- or (S)-6-(1-(1-(4-ethyl-2-fluorophenyl)ethyl)-1H-pyrazol-4-yl)-2-methylpyrimidin-4(3H)-one]	25.4 nM	–
Cc1nc(-c2cnn(C(C)c3ccc(OC(F)(F)F)cc3)c2)cc(=O)[nH]1 (single isomer, unassigned) [Example 127, (R)- or (S)-2-methyl-6-(1-(1-(4-(trifluoromethoxy)phenyl)ethyl)-1H-pyrazol-4-yl)pyrimidin-4(3H)-one]	–	130 nM
COc1ccc(Cc2nc(-n3ccc(C(C)c4ccc(C(F)(F)F)cc4)n3)cc(=O)[nH]2)cc1OC (single isomer, unassigned) [Example 133, (R)- or (S)-2-(3,4-dimethoxybenzyl)-6-(3-(1-(4-(trifluoromethyl)phenyl)ethyl)-1H-pyrazol-1-yl)pyrimidin-4(3H)-one]	–	64.8 nM
COc1ccc(Cc2nc(-n3ccc(C(C)c4ccc(C(F)(F)F)cc4)n3)cc(=O)[nH]2)cc1OC (single isomer, unassigned) [Example 134, (R)- or (S)-2-(3,4-dimethoxybenzyl)-6-(3-(1-(4-(trifluoromethyl)phenyl)ethyl)-1H-pyrazol-1-yl)pyrimidin-4(3H)-one]	–	110 nM
Cc1nc(-c2cnn(C(C)c3ccc(C(F)(F)F)cc3F)c2)cc(=O)[nH]1 (single isomer, unassigned) [Example 135, (R)- or (S)-6-(1-(1-(2-fluoro-4-(trifluoromethyl)phenyl)ethyl)-1H-pyrazol-4-yl)-2-methylpyrimidin-4(3H)-one]	–	109 nM
Cc1nc(-c2cnn(C(C)c3ccc(C(F)(F)F)cc3F)c2)cc(=O)[nH]1 (single isomer, unassigned) [Example 136, (S)- or (R)-6-(1-(1-(2-fluoro-4-(trifluoromethyl)phenyl)ethyl)-1H-pyrazol-4-yl)-2-methylpyrimidin-4(3H)-one]	18.3 nM	11.1 nM
COc1ccc(Cc2nc(-c3cnn(C(C)c4ccc(C(F)(F)F)cc4F)c3)cc(=O)[nH]2)cc1 (single isomer, unassigned) [Example 138, (R)- or (S)-6-(1-(1-(2-fluoro-4-(trifluoromethyl)phenyl)ethyl)-1H-pyrazol-4-yl)-2-(4-methoxybenzyl)pyrimidin-4(3H)-one]	5.6 nM	1.6 nM
COc1ccc(Cc2nc(-c3cnn(C(C)c4ccc(C(F)(F)F)cc4F)c3)cc(=O)[nH]2)cc1 (single isomer, unassigned) [Example 139, (S)- or (R)-6-(1-(1-(2-fluoro-4-(trifluoromethyl)phenyl)ethyl)-1H-pyrazol-4-yl)-2-(4-methoxybenzyl)pyrimidin-4(3H)-one]	52.1 nM	19.1 nM
COc1cccc(Cc2nc(-c3cnn(C(C)c4ccc(C(F)(F)F)cc4F)c3)cc(=O)[nH]2)c1 (single isomer, unassigned) [Example 140, (R)- or (S)-6-(1-(1-(2-fluoro-4-(trifluoromethyl)phenyl)ethyl)-1H-pyrazol-4-yl)-2-(3-methoxybenzyl)pyrimidin-4(3H)-one]	3 nM	0.8 nM
